This passage reports IC50 results from patent publication US11912703B2, “6-azaindole compounds” (BRISTOL-MYERS SQUIBB COMPANY, priority 2017, dated 2024).

The target of one test is human TLR8 (Homo sapiens (Human), UniProt Q9NR97). Description: TLR8 inhibition reporter assay (HEK-Blue SEAP).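 Further: SEAP driven by IFN-β minimal promoter with five NF-κB and AP-1 sites, compounds tested 0.05 nM to 50 µM, 22 h incubation, inhibition relative to agonist plus DMSO wells.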 In general terms: A reporter such as luciferase makes a cellular process visible.
Chain of human TLR8 (Q9NR97 27-1041): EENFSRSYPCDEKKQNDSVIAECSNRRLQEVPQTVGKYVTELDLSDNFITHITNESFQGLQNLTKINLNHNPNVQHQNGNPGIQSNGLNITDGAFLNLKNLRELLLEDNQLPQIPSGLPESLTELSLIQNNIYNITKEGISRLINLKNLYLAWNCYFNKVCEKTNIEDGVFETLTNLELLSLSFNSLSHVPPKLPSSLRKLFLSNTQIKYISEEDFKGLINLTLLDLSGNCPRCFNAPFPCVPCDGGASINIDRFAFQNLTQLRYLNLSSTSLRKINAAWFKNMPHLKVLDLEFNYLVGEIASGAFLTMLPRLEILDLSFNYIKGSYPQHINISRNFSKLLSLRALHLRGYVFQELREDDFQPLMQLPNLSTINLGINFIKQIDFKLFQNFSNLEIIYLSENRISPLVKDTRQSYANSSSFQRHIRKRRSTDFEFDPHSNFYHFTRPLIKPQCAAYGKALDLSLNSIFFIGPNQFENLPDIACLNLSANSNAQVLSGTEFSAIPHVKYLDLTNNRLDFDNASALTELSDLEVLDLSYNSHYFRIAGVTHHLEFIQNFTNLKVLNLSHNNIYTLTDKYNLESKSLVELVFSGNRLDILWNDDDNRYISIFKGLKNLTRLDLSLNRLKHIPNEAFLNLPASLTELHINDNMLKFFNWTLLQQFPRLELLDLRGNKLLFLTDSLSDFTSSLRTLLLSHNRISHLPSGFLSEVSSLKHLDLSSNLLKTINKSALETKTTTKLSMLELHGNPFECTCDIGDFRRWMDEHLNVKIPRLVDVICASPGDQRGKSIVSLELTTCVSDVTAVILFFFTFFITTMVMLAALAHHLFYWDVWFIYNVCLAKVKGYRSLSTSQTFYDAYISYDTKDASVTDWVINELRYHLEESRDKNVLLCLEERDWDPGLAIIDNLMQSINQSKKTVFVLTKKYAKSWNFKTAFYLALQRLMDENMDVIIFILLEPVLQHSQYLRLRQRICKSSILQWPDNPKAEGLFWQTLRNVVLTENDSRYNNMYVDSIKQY
A further test concerns the target human TLR7 (Homo sapiens (Human), UniProt Q9NYK1). Description: TLR7 inhibition reporter assay (HEK-Blue SEAP). The conditions noted are these: HEK-Blue cells overexpressing human TLR7, gardiquimod 7.5 μM stimulation. Format: cell-based.
The target in another test is human TLR9 (Homo sapiens (Human), UniProt Q9NR96). Description: TLR9 inhibition reporter assay (HEK-Blue SEAP).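 Further: SEAP driven by IFN-β minimal promoter carrying five NF-κB and AP-1 sites, 22 h at 37 °C, compounds 0.05 nM–50 µM, inhibition scaled between agonist-plus-DMSO and reference-inhibitor wells.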
Chain of human TLR9 (Q9NR96 26-1032): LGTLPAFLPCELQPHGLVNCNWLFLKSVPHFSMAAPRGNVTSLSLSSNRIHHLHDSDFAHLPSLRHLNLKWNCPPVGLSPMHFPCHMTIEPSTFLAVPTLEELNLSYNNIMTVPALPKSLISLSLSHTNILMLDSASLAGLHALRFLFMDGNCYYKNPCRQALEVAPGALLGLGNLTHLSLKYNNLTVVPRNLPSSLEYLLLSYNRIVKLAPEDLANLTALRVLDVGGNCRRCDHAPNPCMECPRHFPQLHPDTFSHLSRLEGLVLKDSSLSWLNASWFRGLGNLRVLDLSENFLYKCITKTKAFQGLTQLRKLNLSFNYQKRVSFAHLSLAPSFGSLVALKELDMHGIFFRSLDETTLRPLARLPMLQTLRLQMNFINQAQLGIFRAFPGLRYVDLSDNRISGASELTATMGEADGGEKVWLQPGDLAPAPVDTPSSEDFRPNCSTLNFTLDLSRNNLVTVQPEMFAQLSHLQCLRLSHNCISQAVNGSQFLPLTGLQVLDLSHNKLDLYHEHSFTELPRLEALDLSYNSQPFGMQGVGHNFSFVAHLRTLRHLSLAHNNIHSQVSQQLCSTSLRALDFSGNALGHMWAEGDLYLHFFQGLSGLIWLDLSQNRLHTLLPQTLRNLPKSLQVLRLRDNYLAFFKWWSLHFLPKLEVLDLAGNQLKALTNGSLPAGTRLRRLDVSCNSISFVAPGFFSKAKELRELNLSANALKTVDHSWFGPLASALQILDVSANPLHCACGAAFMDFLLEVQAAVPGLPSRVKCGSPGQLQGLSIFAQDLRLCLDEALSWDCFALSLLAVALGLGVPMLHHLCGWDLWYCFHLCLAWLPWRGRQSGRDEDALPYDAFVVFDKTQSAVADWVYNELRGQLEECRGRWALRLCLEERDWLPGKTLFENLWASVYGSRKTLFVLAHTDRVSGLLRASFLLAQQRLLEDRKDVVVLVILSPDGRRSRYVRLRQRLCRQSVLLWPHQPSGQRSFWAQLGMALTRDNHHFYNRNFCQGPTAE
Setting [1] is: read-out: TLR8 IC50; HEK-Blue cells overexpressing human TLR8, R848 15.9 μM stimulation, SEAP reporter.
[2] abbreviates: read-out: TLR9 IC50; HEK-Blue cells overexpressing human TLR9, ODN2006 5 nM stimulation, SEAP reporter.
Where [3] appears, read: read-out: TLR8 IC50; HEK-Blue cells overexpressing human TLR8; R848 15.9 μM stimulation; SEAP reporter.
[4] abbreviates: read-out: TLR9 IC50; HEK-Blue cells overexpressing human TLR9; ODN2006 5 nM stimulation; SEAP reporter.

Molecules are shown by their SMILES. pIC50: −log10 of the molar value. Read-outs that look alike come from different tables or passages of the source.

Chain of human TLR7 (Q9NYK1 27-1049): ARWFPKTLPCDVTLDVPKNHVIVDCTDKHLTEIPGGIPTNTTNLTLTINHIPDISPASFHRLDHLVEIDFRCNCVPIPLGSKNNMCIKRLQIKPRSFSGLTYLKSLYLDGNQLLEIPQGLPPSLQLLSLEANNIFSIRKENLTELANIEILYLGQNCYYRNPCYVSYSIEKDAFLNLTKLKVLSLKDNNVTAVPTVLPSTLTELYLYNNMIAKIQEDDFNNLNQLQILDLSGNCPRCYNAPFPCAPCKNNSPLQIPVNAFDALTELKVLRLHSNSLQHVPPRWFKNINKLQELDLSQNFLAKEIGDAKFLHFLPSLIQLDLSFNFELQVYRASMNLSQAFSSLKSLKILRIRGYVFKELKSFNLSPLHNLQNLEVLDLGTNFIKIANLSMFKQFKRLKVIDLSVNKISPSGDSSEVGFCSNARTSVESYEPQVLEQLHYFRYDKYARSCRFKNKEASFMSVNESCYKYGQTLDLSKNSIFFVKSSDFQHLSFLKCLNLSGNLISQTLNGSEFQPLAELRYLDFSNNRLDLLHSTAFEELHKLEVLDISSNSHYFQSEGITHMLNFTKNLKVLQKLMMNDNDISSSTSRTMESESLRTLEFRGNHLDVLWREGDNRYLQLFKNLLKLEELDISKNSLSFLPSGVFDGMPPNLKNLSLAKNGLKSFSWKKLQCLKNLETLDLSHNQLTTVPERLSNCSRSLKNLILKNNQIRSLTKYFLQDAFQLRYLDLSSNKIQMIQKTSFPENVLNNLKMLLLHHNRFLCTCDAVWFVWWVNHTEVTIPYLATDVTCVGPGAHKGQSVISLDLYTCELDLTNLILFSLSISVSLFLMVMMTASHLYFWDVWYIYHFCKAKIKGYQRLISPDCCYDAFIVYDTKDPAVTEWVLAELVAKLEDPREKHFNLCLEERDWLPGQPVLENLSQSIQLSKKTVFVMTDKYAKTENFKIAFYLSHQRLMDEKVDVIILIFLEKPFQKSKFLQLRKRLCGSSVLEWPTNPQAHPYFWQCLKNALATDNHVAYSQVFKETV

For the compound `Cc1c(-c2[nH]c3cnc(C4CCC(NC(C)C)CC4)cc3c2C(C)C)cn2ncnc2c1C` (centres unmarked) [Example 318], the pIC50 on human TLR8 (setting [1]) was 7.68; against human TLR7, 8.22; at human TLR9 (setting [2]) it was 6.07.
Regarding `Cc1c(N2CCC(NC(C)C)CC2)ncc2[nH]c(-c3cc(C)c4ncnn4c3)c(C(C)C)c12` [Example 236], the negative logarithm of the IC50 (pIC50) on human TLR8 (setting [1]) is 8.96; on human TLR8 (setting [3]), 8.96; at human TLR7, 9.18; at human TLR9 (setting [2]), 6.03; at human TLR9 (setting [4]), 6.03.
For the compound `COc1cc(-c2[nH]c3cnc(N4CCNCC4)cc3c2C(C)C)cn2ncnc12` [Example 7, 6-(3-isopropyl-5-(piperazin-1-yl)-1H-pyrrolo[2,3-c]pyridin-2-yl)-8-methoxy-[1,2,4]triazolo [1,5-a]pyridine], the pIC50 on human TLR8 (setting [1]) was 9.25; on human TLR7 it was 8.82; on human TLR9 (setting [2]) it was 6.77.
Turning to `COc1cc(-c2[nH]c3cnc(N4CCN(C(C)C)C[C@H]4C)c(F)c3c2C(C)C)cn2ncnc12` [Example 443], the pIC50 at human TLR8 (setting [1]) is 8.03; against human TLR7, 8.40; at human TLR9 (setting [2]) it was 5.18.
Consider `Cc1c(-c2[nH]c3cnc(N4CCN(CC(C)(C)C)CC4)c(F)c3c2C(C)C)cn2ncnc2c1C` [Example 432], for which the pIC50 on human TLR8 (setting [1]) is 8.57; against human TLR7, 6.99; on human TLR9 (setting [2]), < 4.30.
The like results for `CCN(C)C1CCC(c2cc3c(C(C)C)c(-c4cc(OC)c5ncnn5c4)[nH]c3cn2)C1` (centres unmarked) [Example 248] were, in that order, 8.17, 8.24 and 6.40.
On to `COc1cc(-c2[nH]c3cnc(C4CCC(NC5COC5)CC4)c(F)c3c2C(C)C)cn2ncnc12` (centres unmarked) [Example 224], for which the values for the pIC50 at human TLR8 (setting [3]), against human TLR7 and on human TLR9 (setting [4]) were 9.21, 9.40 and 6.17, respectively.
Regarding `Cc1c(-c2[nH]c3cnc(C4CCN(CC(N)=O)CC4)cc3c2C(C)C)cn2ncnc2c1C` [Example 23], the values for the negative logarithm of the IC50 (pIC50) on human TLR8 (setting [1]), at human TLR7 and at human TLR9 (setting [2]) were 8.47, 8.59 and 6.83, respectively.
The like results for `CCN1CCN(c2ncc3[nH]c(-c4cc(OC)c5ncnn5c4)c(C(C)C)c3c2F)CC1` [Example 389] were, in that order, 9.42, 8.96 and 5.21.
Take `COc1cc(-c2[nH]c3cnc(N4CCC(N(C)CC(=O)N(C)C)CC4)c(F)c3c2C(C)C)cn2ncnc12` [Example 72]: the pIC50 on human TLR8 (setting [1]) was 8.89; against human TLR7, 8.82; at human TLR9 (setting [2]), 5.22.
The like results for `COc1cc(-c2[nH]c3cnc(N4CCC(NCC5(C)COC5)CC4)cc3c2C(C)C)cn2ncnc12` [Example 322] were, in that order, 9.64, 8.68 and 5.84.
Turning to `CNC(=O)CN1CCC(c2ncc3[nH]c(-c4cc(C)nc(C)c4)c(C(C)C)c3c2F)CC1` [Example 150], the pIC50 was 8.28 at human TLR8 (setting [1]), 8.47 on human TLR7 and 5.22 on human TLR9 (setting [2]).
The like results for `COCCNC1CCC(c2cc3c(C(C)C)c(-c4cn5ncnc5c(C)c4C)[nH]c3cn2)CC1` (centres unmarked) [Example 348] were, in that order, 8.05, 8.46 and 6.33.
The like results for `Cc1cc(-c2[nH]c3cnc(C4CCN(C(=O)CN(C)C)CC4)cc3c2C(C)C)cn2ncnc12` [Example 5, 2-(dimethylamino)-1-(4-(3-isopropyl-2-(8-methyl-[1,2,4]triazolo[1,5-a]pyridine-6-yl)-1H-pyrrolo[2,3-c]pyridin-5-yl)piperidin-1-yl)ethan-1-one] were, in that order, 7.00, 8.02 and 6.60.
The like results for `COc1cc(-c2[nH]c3cnc(C4CCC(N(C)C5COC5)CC4)c(F)c3c2C(C)C)cn2ncnc12` (centres unmarked) [Example 197] were, in that order, 9.36, 9.52 and 5.80.
With `CNC(=O)CN1CCC(c2ncc3[nH]c(-c4cc(C)c5ncnn5c4)c(C(C)C)c3c2F)CC1` [Example 181], the pIC50 is 8.30 on human TLR8 (setting [1]), 8.82 at human TLR7 and 5.18 at human TLR9 (setting [2]).
The like results for `COc1cc(-c2[nH]c3cnc(C4CCC(NCC(C)(C)C)C4)cc3c2C(C)C)cn2ncnc12` (centres unmarked) [Example 95] were, in that order, 7.46, 7.39 and 5.86.
As for `COc1cc(-c2[nH]c3cnc(N4CCC(NCC5(C)COC5)CC4)c(C)c3c2C(C)C)cn2ncnc12` [Example 147], the negative logarithm of the IC50 (pIC50) on human TLR8 (setting [1]) was 9.57; against human TLR7, 9.21; on human TLR9 (setting [2]), 5.69.
The like results for `Cc1cc(-c2[nH]c3cnc(N4CCC(NC5COC5)CC4)c(F)c3c2C(C)C)cn2ncnc12` [Example 255] were, in that order, 9.31, 9.30 and 4.84.
Turning to `Cc1c(-c2[nH]c3cnc(C4CCC(NC5CCOCC5)CC4)c(F)c3c2C(C)C)cn2ncnc2c1C` (centres unmarked) [Example 232], the pIC50 on human TLR8 (setting [3]) was 8.49; against human TLR7 it was 7.96; at human TLR9 (setting [4]) it was 5.35.
Consider `CCN(C)C1CCC(c2ncc3[nH]c(-c4cc(OC)c5ncnn5c4)c(C(C)C)c3c2C)CC1` (centres unmarked) [Example 268], for which the pIC50 on human TLR8 (setting [1]) is 7.77; against human TLR7 it was 8.32; on human TLR9 (setting [2]), 6.12.
The like results for `COc1cc(-c2[nH]c3cnc(C4CCN(CC5(C)COC5)CC4)c(F)c3c2C(C)C)cn2ncnc12` [Example 17] were, in that order, 8.80, 8.89 and 5.73.
`Cc1cc(-c2[nH]c3cnc(C4CCN(C(=O)CN(C)C)CC4)c(F)c3c2C(C)C)cn2ncnc12` [Example 66]: the pIC50 was 8.31 on human TLR8 (setting [1]), 8.68 against human TLR7 and 5.44 at human TLR9 (setting [2]).
The like results for `Cc1c(-c2[nH]c3cnc(N4CC5(CN(CCS(C)(=O)=O)C5)C4)c(F)c3c2C(C)C)cn2ncnc2c1C` [Example 396] were, in that order, 7.72, 7.00 and < 4.30.
The like results for `CNC(=O)CN1CCC(c2ncc3[nH]c(-c4cc(OC)c5ncnn5c4)c(C(C)C)c3c2F)CC1` [Example 20] were, in that order, 8.37, 8.60 and 5.18.
Take `Cc1c(-c2[nH]c3cnc(N4CCC(NC5CCOCC5)CC4)c(C)c3c2C(C)C)cn2ncnc2c1C` [Example 205]: the pIC50 was 9.26 on human TLR8 (setting [1]), 8.92 against human TLR7 and 6.22 on human TLR9 (setting [2]).
The like results for `CNC1CCN(c2ncc3[nH]c(-c4cc(C)c5ncnn5c4)c(C(C)C)c3c2F)CC1` [Example 71] were, in that order, 9.19, 9.39 and 5.44.
The like results for `COc1cc(-c2[nH]c3cnc(C4CCC(N5CC6(COC6)C5)CC4)c(C)c3c2C(C)C)cn2ncnc12` (centres unmarked) [Example 245] were, in that order, 7.33, 8.20 and 6.59.
Turning to `COc1cc(-c2[nH]c3cnc(N4CC5(CNC5)C4)c(F)c3c2C(C)C)cn2ncnc12` [Example 355, 6-(4-fluoro-3-isopropyl-5-(2,6-diazaspiro[3.3]heptan-2-yl)-1H-pyrrolo[2,3-c]pyridin-2-yl)-8-methoxy-[1,2,4]triazolo[1,5-a]pyridine], the pIC50 on human TLR8 (setting [1]) is 7.66; at human TLR7, 7.48; on human TLR9 (setting [2]), 5.25.
The like results for `Cc1c(N2CCC(NCC(C)(C)C)CC2)ncc2[nH]c(-c3cc(C)c4ncnn4c3)c(C(C)C)c12` [Example 112] were, in that order, 8.64, 8.80 and 5.73.
Turning to `COCCN1CCN(c2ncc3[nH]c(-c4cn5ncnc5c(C)c4C)c(C(C)C)c3c2F)[C@H](C)C1` [Example 472], the pIC50 at human TLR8 (setting [3]) was 9.04; on human TLR7, 8.28; at human TLR9 (setting [4]), 4.33.
Consider `COc1cc(-c2[nH]c3cnc(N4CCN(CC(N)=O)CC4)c(C)c3c2C(C)C)cn2ncnc12` [Example 155], for which the pIC50 was 8.30 on human TLR8 (setting [1]), 8.14 against human TLR7 and 5.20 at human TLR9 (setting [2]).
Consider `Cc1c(-c2[nH]c3cnc(C4CCC(N5CC6(COC6)C5)CC4)c(C)c3c2C(C)C)cn2ncnc2c1C` (centres unmarked) [Example 142], for which the pIC50 on human TLR8 (setting [1]) was 7.41; on human TLR7 it was 7.89; at human TLR9 (setting [2]), 6.55.
Take `Cc1c(-c2[nH]c3cnc(N4CC5(C4)CN(C4COC4)C5)c(F)c3c2C(C)C)cn2ncnc2c1C` [Example 400, 6-(4-fluoro-3-isopropyl-5-(6-(oxetan-3-yl)-2,6-diazaspiro[3.3]heptan-2-yl)-1H-pyrrolo[2,3-c]pyridin-2-yl)-7,8-dimethyl-[1,2,4]triazolo[1,5-a]pyridine]: the pIC50 against human TLR8 was 8.80; against human TLR7, 7.09; against human TLR9 it was < 4.30.
Consider `Cc1c(-c2[nH]c3cnc(C4CCC(N5CC6(COC6)C5)CC4)c(C)c3c2C(C)C)cn2ncnc2c1C` (centres unmarked) [Example 57], for which the results for the pIC50 at human TLR8 (setting [1]), on human TLR7 and at human TLR9 (setting [2]) were 7.72, 8.31 and 6.17, respectively.
`COc1cc(-c2[nH]c3cnc(C4CCNCC4)cc3c2C(C)C)cn2ncnc12` [Example 312]: the pIC50 on human TLR8 (setting [1]) is 6.94; against human TLR7, 8.07; on human TLR9 (setting [2]) it was 6.04.
Regarding `CNC(=O)CN(C)C1CCN(c2ncc3[nH]c(-c4cc(OC)c5ncnn5c4)c(C(C)C)c3c2F)CC1` [Example 221], the pIC50 is 9.15 on human TLR8 (setting [3]), 8.96 against human TLR7 and 5.59 on human TLR9 (setting [4]).
With `COc1cc(-c2[nH]c3cnc(C4CCN(CCS(C)(=O)=O)CC4)c(F)c3c2C(C)C)cn2ncnc12` [Example 14], the pIC50 at human TLR8 (setting [1]) is 8.47; against human TLR7, 8.41; on human TLR9 (setting [2]), 4.89.

The pIC50 is −log10 of the IC50, conventionally taken in molar units.
